Where a name gives a salt, the structure may show the parent alone.
What was measured:
[1] = system: N-acetylglycosaminidase (as osteoclastic activity index); settings: scalp slices of new-born mouse, tissue culture; starting from the 10 μmolar concentration
Protocol: (§1) A study on a tissue culture (scalp slices of new-born mouse prepared according to the method described by A. Togari, Gen. Pharmacol. 24, 1133, 1993) was performed. At the end of the culture period, the tissue added μmolar concentrations of the title product, was homogenised in saline plus 0.1% Triton X-100.
(§2) The obtained homogenate was used to determine alkaline phosphatase (as osteoblastic activity index) and N-acetylglycosaminidase (as osteoclastic activity index).

[2] = system: alkaline phosphatase (as osteoblastic activity index); settings: scalp slices of new-born mouse, tissue culture; starting from the 10 μmolar concentration
Protocol: as §1, §2

Structure (SMILES): NCCCC(O)(P(=O)(O)O)P(=O)(O)O [alendronate trometamine, alendronate trometamine salt]
- osteoclastic activity (N-acetylglycosaminidase) [1]: inhibit the osteoclastic activity
- osteoblastic activity (alkaline phosphatase) [2]: activate in a significant manner the osteoblastic activity
